Laboratory results as given in patent publication US20140163218A1, “NOVEL PHTHALOCYANINE DERIVATIVES FOR THERAPEUTIC USE” (MOLTENI THERAPEUTICS S.R.L., priority 2011, published 2014).
Marks after values point to notes of the source that are not given here.

Columns and labels:
[1] = Stability in water by HPLC (loss of titre and purity after 8 hours); format: physicochemical; conditions: 1 mg/mL in DMSO diluted 1:10 with deionised water, HPLC at time 0 and after 8 hours; result in words
Procedure: Protocol: each sample is dissolved in DMSO at the concentration of 1 mg/mL and then diluted 1:10 with deionised water. The solution is analysed in HPLC at time 0 and after 8 hours and any loss of titre and/or of purity is recorded by the following method: Column: Luna C18 (2) 150*4.6 mm (5 μm);
elution in gradient of AcOH 0.1% in water (Eluent A) and methanol (Eluent B) with % B 10-100 in 20 min or 40-100 depending on the polarity of the injected compound; flow 1 mL/min; temperature: 25° C.; injection […]; detection at 686 nm, bw 20 nm.

[2] = tested on: Candida albicans; conditions: 99.9% reduction; 1 hr incubation at 37° C.; red light 600-700 nm, 50 mW/cm^2 for 10 min, 30 J/cm^2
Procedure: (§1) The bacterial and fungal cells (ATCC of Staphylococcus aureus, Escherichia coli and Pseudomonas aeruginosa strains for the bacteria, Candida albicans for the yeasts) are grown in a Tryptic Soy Broth (TSB) liquid medium at 37° C. for 16-20 hr (bacteria) and in Sabouraud Dextrose Broth (SDB) at 37° C. for 24 hr (yeasts) in an aerobic atmosphere.
(§2) The cells are collected for centrifugation (2000 g, 15 min.) and re-suspended in sterile PBS (pH=7.3±0.1).
(§3) Exposure of the microorganisms to the photosensitiser and to the light source is carried out in wells of sterile, polystyrene, Microtiter plates, in PBS containing the desired concentration of photosensitiser. The plate is left to incubate at room temperature, for 5 min for the bacteria and for 1 hr at 37° C. for the yeasts. For lighting with red visible light a halogen lamp is used, model PDT 1200 Waldmann (A=600-700 nm) at 50 mW/cm^2 for 10 min and the total dose of light consequently used in the assay is of 30 J/cm^2.
(§4) After illuminating the bacterial or fungal suspension, and suitable dilutions thereof in sterile PBS, they are inoculated on agar plates to determine the number of residual UFCs. The plates are incubated at 37° C. for 24 hours and the results are recorded at the end of this period.

[3] = tested on: Escherichia coli; conditions: 99.9% reduction; 5 min incubation; red light 600-700 nm, 50 mW/cm^2 for 10 min, 30 J/cm^2
Procedure: as §1, §2, §3, §4

[4] = tested on: Pseudomonas aeruginosa; conditions: 99.9% reduction; 5 min incubation; red light 600-700 nm, 50 mW/cm^2 for 10 min, 30 J/cm^2
Procedure: as §1, §2, §3, §4

[5] = tested on: Staphylococcus aureus; conditions: 99.9% reduction; 5 min incubation; red light 600-700 nm, 50 mW/cm^2 for 10 min, 30 J/cm^2
Procedure: as §1, §2, §3, §4

Substance	Loss of purity (% area) [1]	Loss of titre (%) [1]	MFC, 3 log (μM) C. albicans [2]	MBC, 3 log (μM) E. coli [3]	MBC, 3 log (μM) P. aeruginosa [4]	MBC, 3 log (μM) S. aureus [5]
{bis-[bis-(3-N,N,N-trimethylammoniumpropyl)]propylsilyloxy}silicon(IV) phthalocyanine tetrachloride [Compound 2]	insignificant (of ≦ to 0.1% for the loss of purity)	insig- nificant	>50 μM	6.25 μM	6.25 μM	0.25 μM
{bis-[bis-(p-N,N,N-trimethylammoniumphenyl)]propylsilyloxy}silicon(IV) phthalocyanine tetrachloride [Compound 3]	insignificant (of ≦ to 0.1% for the loss of purity)	insig- nificant	>50 μM	3.13 μM	1.56 μM	0.05 μM
{bis-[bis-(p-N,N,N-trimethylammoniumphenyl)]-3-(N-methyl-piperidine-1-ium)propylsilyloxy}silicon(IV) phthalocyanine hexachloride [Compound 1]	insignificant (of ≦ to 0.1% for the loss of purity)	insig- nificant	12.5 μM	6.25 μM	6.25 μM	0.78 μM
{bis-[3-(N-methyl-piperidin-1-ium)propyl-dipropvlsilyloxy]}silicon(IV) phthalocyanine dichloride [Compound 4]	insignificant (of ≦ to 0.1% for the loss of purity)	insig- nificant	3.13* μM	6.25 μM	50 μM	0.03 μM
{bis-[3-(m-N,N,N-trimethylammoniumphenyloxy)propyl-dipropylsilyloxyl]}silicon(IV) phthalocyanine dichloride [Compound 5]	insignificant (of ≦ to 0.1% for the loss of purity)	insig- nificant	50 μM	25 μM	25 μM	0.1 μM
